# Measurements reported in US10294202B2, “Pyrrolidinones as herbicides” (FMC Corporation, priority 2013, dated 2019).
# Experiments:
# morningglory = assay: Test C pre-/postemergence herbicide test; type: in vivo, Ipomoea coccinea; conditions: Preemergence
# Outline: (§1)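 Two application timings ran in parallel with identically formulated test chemicals (non-phytotoxic solvent, surfactant included): spray on seeded loam–sand soil, and spray on emerged plants 2 to 18 cm high. Evaluation at 13 to 15 days compared each species with controls, rated from 0 up to 100.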
# pigweed = assay: Test C pre-/postemergence herbicide test; type: in vivo, Amaranthus retroflexus; conditions: Preemergence
# Outline: as §1
# wheat (winter wheat) = assay: Test C pre-/postemergence herbicide test; type: in vivo, Triticum aestivum; conditions: Preemergence
# Outline: as §1
# galium = assay: Test C pre-/postemergence herbicide test; type: in vivo, Galium aparine; conditions: Preemergence
# Outline: as §1
# barnyardgrass = assay: Test C pre-/postemergence herbicide test; type: in vivo, Echinochloa crus-galli; conditions: Preemergence
# Outline: as §1
# foxtail, giant = assay: Test C pre-/postemergence herbicide test; type: in vivo, Setaria faberii; conditions: Preemergence
# Outline: as §1
# wheat = assay: Test A pre-/postemergence herbicide test; type: in vivo, Triticum aestivum; conditions: for Plant response rating, Wheat: 0 to 100 scale
# Outline: (§2)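 Directed soil spray to seeded pots (preemergence) or spray onto one- to two-leaf seedlings 2–10 cm tall (postemergence); loam/sand substrate throughout. Evaluated visually after about 10 days against untreated plants, 0 = no effect, 100 = complete control.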
# giant foxtail = assay: Test A pre-/postemergence herbicide test; type: in vivo, Setaria faberii; conditions: for Plant response rating, Foxtail, Giant: 0 to 100 scale
# Outline: as §2
# lambsquarters = assay: Test C pre-/postemergence herbicide test; type: in vivo, Chenopodium album; conditions: Preemergence
# Outline: as §1
# johnsongrass = assay: Test C pre-/postemergence herbicide test; type: in vivo, Sorghum halepense; conditions: Preemergence
# Outline: as §1
# [1] = 31 g ai/ha, scale 0 to 100, 0 is no effect and 100 is complete control
# [2] = 62 g ai/ha, scale 0 to 100 (0 no effect, 100 complete control)
# [3] = 125 g ai/ha, scale 0 to 100 (0 no effect, 100 complete control)
# [4] = 125 g ai/ha, visual rating, 0 no effect, 100 complete control, approximately 10 days, preemergence
# [5] = Postemergence, 125 g ai/ha, 0 is no effect, 100 is complete control
# [6] = preemergence, 500 g ai/ha, 0 is no effect and 100 is complete control
compound,measurement,setting,value
O=C1NCC(c2cccc(C(F)(F)F)c2)C1C(=O)Nc1ccccc1Cl (racemic) [Compound 189],Morningglory plant response rating,morningglory; [1],0
same,Morningglory plant response rating,morningglory; [2],0
same,"Plant response rating, Morningglory",morningglory; [3],0
same,"Plant response rating, Morningglory","morningglory; 16 g ai/ha, scale 0 to 100",0
same,Pigweed plant response rating,pigweed; [1],0
same,Pigweed plant response rating,pigweed; [2],0
same,"Plant response rating, Pigweed",pigweed; [3],0
same,"Plant response rating, Pigweed","pigweed; 16 g ai/ha, scale 0 to 100",0
same,Wheat plant response rating,wheat (winter wheat); [1],0
same,Wheat plant response rating,wheat (winter wheat); [2],0
same,"Plant response rating, Wheat",wheat (winter wheat); [3],0
same,"Plant response rating, Wheat","wheat (winter wheat); 16 g ai/ha, scale 0 to 100",0
same,Galium plant response rating,galium; [1],0
same,Galium plant response rating,galium; [2],0
same,"Plant response rating, Galium",galium; [3],80
same,"Plant response rating, Galium","galium; 16 g ai/ha, scale 0 to 100",0
same,Barnyardgrass plant response rating,barnyardgrass; [1],85
same,"Plant response rating, Barnyardgrass","barnyardgrass; 62 g ai/ha, scale 0 to 100",90
same,"Plant response rating, Barnyardgrass",barnyardgrass; [3],90
same,"Plant response rating, Barnyardgrass","barnyardgrass; 16 g ai/ha, scale 0 to 100",45
same,"Foxtail, Giant plant response rating","foxtail, giant; [1]",80
same,"Foxtail, Giant plant response rating","foxtail, giant; [2]",90
same,"Plant response rating, Foxtail, Giant","foxtail, giant; [3]",95
same,"Plant response rating, Foxtail, Giant","foxtail, giant; 16 g ai/ha, scale 0 to 100",85
same,"Plant response rating, Wheat",wheat; [4],0
same,"Plant response rating, Wheat",wheat; [5],0
same,"Wheat plant response rating (0 to 100 scale, 0 is no effect, 100 is complete control)","wheat; Postemergence, 500 g ai/ha",0
same,"Plant response rating, Wheat",wheat; [6],20
same,"Plant response rating, Foxtail, Giant",giant foxtail; [4],90
same,"Plant response rating, Foxtail, Giant",giant foxtail; [5],70
same,"Foxtail, Giant plant response rating (0 to 100 scale, 0 is no effect, 100 is complete control)","giant foxtail; Postemergence, 500 g ai/ha",90
same,"Plant response rating, Foxtail, Giant",giant foxtail; [6],90
same,Lambsquarters plant response rating,lambsquarters; [1],0
same,Lambsquarters plant response rating,lambsquarters; [2],0
same,"Plant response rating, Lambsquarters",lambsquarters; [3],5
same,"Plant response rating, Lambsquarters","lambsquarters; 16 g ai/ha, scale 0 to 100",0
same,Johnsongrass plant response rating,johnsongrass; [1],0
same,Johnsongrass plant response rating,johnsongrass; [2],0
same,"Plant response rating, Johnsongrass",johnsongrass; [3],15
same,"Plant response rating, Johnsongrass","johnsongrass; 16 g ai/ha, scale 0 to 100",0
